How the values were obtained:
[1] = system: Mus musculus; assay: Effect on body temperature in mice at intraperitoneal dosage of 8 mg/kg, (compound administered 30 min before the test) after 75 min; format: functional
[2] = system: Rattus norvegicus; assay: Tested for the effect on 8-OH-DPAT-induced behavior in reserpine pretreated rat against flat body posture at dosage of 2 mg/kg; format: functional
[3] = system: Mus musculus; assay: Effect on body temperature in mice at intraperitoneal dosage of 2 mg/kg, (compound administered 30 min before the test) after 30 min; format: functional
[4] = system: Mus musculus; assay: Effect on body temperature in mice at intraperitoneal dosage of 4 mg/kg, (compound administered 30 min before the test) after 30 min; format: functional
[5] = system: Rattus norvegicus; assay: Tested for the effect on 8-OH-DPAT-induced behavior in reserpine pretreated rat against forepaw treading at dosage of 8 mg/kg; format: functional
[6] = system: Rattus norvegicus; assay: Tested for the effect on 8-OH-DPAT-induced lower lip retraction (LLR) in rat at dosage of 16 mg/kg; format: functional
[7] = system: Mus musculus; assay: Effect on body temperature in mice at intraperitoneal dosage of 4 mg/kg, (compound administered 30 min before the test) after 60 min; format: functional
[8] = system: Mus musculus; assay: Effect on body temperature in mice at intraperitoneal dosage of 1 mg/kg, (compound administered 30 min before the test) after 90 min; format: functional
[9] = organism: Rattus norvegicus; assay: Selectivity is the ratio between Ki values of 5-HT2 and 5-HT1A
[10] = system: Rattus norvegicus; assay: Tested for the effect on 8-OH-DPAT-induced behavior in reserpine pretreated rat against forepaw treading at dosage of 2 mg/kg; format: functional
[11] = system: Mus musculus; assay: Effect on 8-OH-DPAT-induced hypothermia in mice (5 mg/kg) at intraperitoneal dosage of 1 mg/kg of compound after 15 mins; format: functional
[12] = target: T1, 5-hydroxytryptamine receptor 1A (Rattus norvegicus, UniProt P19327); assay: Tested in vitro for receptor binding affinity against 5-hydroxytryptamine 1A receptor using radioligand [3H]8-OH-DPAT
T1 sequence (P19327 whole entry): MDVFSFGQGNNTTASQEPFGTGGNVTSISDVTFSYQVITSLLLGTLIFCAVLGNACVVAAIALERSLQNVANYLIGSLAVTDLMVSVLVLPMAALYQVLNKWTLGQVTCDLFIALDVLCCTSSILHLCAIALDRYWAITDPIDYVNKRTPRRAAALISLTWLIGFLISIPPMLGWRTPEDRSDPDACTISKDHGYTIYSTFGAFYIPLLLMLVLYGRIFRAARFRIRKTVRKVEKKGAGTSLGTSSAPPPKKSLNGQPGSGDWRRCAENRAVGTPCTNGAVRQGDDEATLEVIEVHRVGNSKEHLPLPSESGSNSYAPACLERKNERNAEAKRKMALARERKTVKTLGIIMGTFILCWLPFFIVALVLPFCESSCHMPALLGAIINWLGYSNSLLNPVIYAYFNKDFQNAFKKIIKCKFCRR

[13] = system: Mus musculus; assay: Effect on 8-OH-DPAT-induced hypothermia in mice (5 mg/kg) at intraperitoneal dosage of 2 mg/kg of compound after 60 mins; format: functional
[14] = system: Mus musculus; assay: Effect on body temperature in mice at intraperitoneal dosage of 8 mg/kg, (compound administered 30 min before the test) after 60 min; format: functional
[15] = system: Mus musculus; assay: Effect on 8-OH-DPAT-induced hypothermia in mice (5 mg/kg) at intraperitoneal dosage of 1 mg/kg of compound after 45 mins; format: functional
[16] = system: Mus musculus; assay: Effect on body temperature in mice at intraperitoneal dosage of 1 mg/kg, (compound administered 30 min before the test) after 30 min; format: functional

- Selectivity [9]: 69
- Ki [12]: 15 nM
Structure (SMILES): COc1ccccc1N1CCN(CCCn2nnc3ccccc32)CC1
- Delta t [1]: 0.2 °C
- Behavioral score [2]: 14.8
- Delta t [3]: 0.3 °C
- Delta t [4]: 0.4 °C
- Behavioral score [5]: 3.7
- LLR score [6]: 0.9
- Delta t [7]: 0.1 °C
- Delta t [8]: 0.1 °C
- Behavioral score [10]: 13.4
- Delta t [11]: 1.5 °C
- Delta t [13]: 0.1 °C
- Delta t [14]: 0.1 °C
- Delta t [15]: 0.6 °C
- Delta t [16]: 0 °C

— ChEMBL document CHEMBL1127439, “Structure-activity relationship studies of central nervous system agents. 13. 4-[3-(Benzotriazol-1-yl)propyl]-1-(2-methoxyphenyl)piperazine, a new putative 5-HT1A receptor antagonist, and its analogs” (J Med Chem, 1994)
